Experimental data from patent publication US9382230B2, “Methods and compositions for modulating Ire1, SRC and ABL activity” (The Regents of the University of California, priority 2008, dated 2016).

Columns and labels:
[1] = system: Xbp-1 mRNA splicing (UPR activation through Ire1) in HEK293 cells; assay: XBP-1 mRNA splicing by RT-PCR in HEK293 cells (UPR); assay type: cell-based, mammalian; conditions: for % splicing mRNA XBP-I Average: Hek293 cells treated for 4 hrs, RT-PCR; for in vivo activation of Ire1: summary statement
Description: The effect of tunicamycin, SU11248, DJM2005, APY24, and APY29 on Ire1 activity was tested in mammalian cells using HEK293 cells as a model system. Cells were treated according to the methods described in Lin J H et al., Science 318:944 (2007). After treatment with the corresponding agents for the indicated time, Xbp-1 mRNA splicing was determined by RT-PCR. Unspliced (u) and spliced (s) Xbp1-mRNA products are indicated and serve as a measure of UPR activation through Ire1.
Exemplary compounds were assayed for their effect on UPR. Results are set forth in FIGS. 18-19 and in the table below.

yIre1 = molecular target: T1, yIre1 (Saccharomyces cerevisiae, UniProt P32361); assay: RNA cleavage-based yIre1 activation assay; assay type: biochemical, yeast; design: unit not given here; conditions: 3 μM yIre1, stem loop RNA, 15 μM effector
T1 construct: GST (N); made in house; host or cells: E. coli BL21 CodonPlus (RIPL)
T1 sequence (P32361 with tags, fused parts or gaps limits assumed): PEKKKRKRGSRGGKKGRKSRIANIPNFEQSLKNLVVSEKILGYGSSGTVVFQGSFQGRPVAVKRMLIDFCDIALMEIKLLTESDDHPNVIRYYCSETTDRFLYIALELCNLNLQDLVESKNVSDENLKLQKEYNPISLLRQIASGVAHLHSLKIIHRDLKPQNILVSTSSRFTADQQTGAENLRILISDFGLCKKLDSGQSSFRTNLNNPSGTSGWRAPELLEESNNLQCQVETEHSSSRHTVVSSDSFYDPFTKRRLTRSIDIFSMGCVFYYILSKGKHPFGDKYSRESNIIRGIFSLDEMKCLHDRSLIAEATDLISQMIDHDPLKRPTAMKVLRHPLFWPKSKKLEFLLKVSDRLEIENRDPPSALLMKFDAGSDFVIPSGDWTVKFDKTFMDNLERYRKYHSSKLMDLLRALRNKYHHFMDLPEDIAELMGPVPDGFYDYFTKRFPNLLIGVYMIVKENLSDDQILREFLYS
Description: The RNase Cleavage Assay.
RNA cleavage reactions were conducted at 30° C. in buffer containing 20 mM HEPES (pH 7.5), 70 mM NaCl, 2 mM ADP (pH 7.0), 2 mM Mg(OAc)2, 5 mM DTT, 5% glycerol, less than 1 nM ^32p-labeled RNA substrate, and 3 nM-20 μM Ire1. Reaction solutions and buffers were designed using Biochem Lab Solutions 3.5. Reactions were prepared such that 1 μl of RNA was added to 9 μl of pre-warmed reaction mixture containing all components except RNA. Typically, 3-10 minute time courses were collected starting from 5 seconds for the first time point. At time intervals, 1 μl of solution was withdrawn from each reaction and mixed wish 6 μl stop solution containing 10 M urea, 0.1% SDS, 0.1 mM EDTA, 0.05% xylene cyanol, and 0.05% bromophenol blue. The samples were separated by a denaturing 10% PAGE and exposed on a phosphor storage screen. The screens were scanned on a Storm or a Typhoon instrument and quantified using ImageQuant 5.0 or GelQuant.NET 1.4 programs. The data were plotted and fit in SigmaPlot 6.0.
RNA cleavage can be used to assess yIre1 activation as shown by FIG. 20 and the table below (3 μM yIre1, stem loop RNA, 15 μM effector): […]

Ire1 = assay: Summary statement of Ire1 activation or inhibition (assay not specified)
[2] = system: XBP1-GFP reporter in Hek293-FT cells; assay: FACS on Hek293-FT cells transfected with XBP1-GFP reporter; assay type: cell-based; conditions: treated for 24 hrs
Description: Exemplary compounds were assayed and the results are set froth in the table below.

| Compound | % splicing mRNA XBP-I Average ([1]; Tm 0.3 ug/ml + compound 2 μM) [%] | % splicing mRNA XBP-I Average ([1]; compound 2 μM) [%] | % splicing mRNA XBP-I Average ([1]; compound 10 μM) [%] | RNA cleavage (yIre1 activation) (yIre1) | inhibition of Ire1 (Ire1) | % fold induction to Control ([2]; Tm 0.3 ug/ml + compound 2 uM) [%] | Mean fluorescence ([2]; Tm 0.3 ug/ml + compound 2 uM) | % fold induction to Control ([2]; compound 2 uM) [%] | Mean fluorescence ([2]; compound 2 uM) | in vivo activation of Ire1 [1] | activation of Ire1 (Ire1) | % splicing mRNA XBP-I Average ([1]; Tm alone) [%] | % fold induction to Control ([2]; Tm alone) [%] | Mean fluorescence ([2]; Tm alone) |
| --- | --- | --- | --- | --- | --- | --- | --- | --- | --- | --- | --- | --- | --- | --- |
| OCCc1ccc(Nc2nccc(Nc3cc(C4CCCCC4)n[nH]3)n2)cc1 [APY33] | 8 | 8 | 18 | 0.00232 | significant inhibition | 49 | 3613 | 16 | 2811 | – | – | – | – | – |
| N#CCc1ccc(Nc2nccc(Nc3cc(C4CCCCC4)n[nH]3)n2)cc1 [APY34] | 7 | 12 | 34 | 0.0014 | – | 78 | 4318 | 17 | 2836 | – | – | – | – | – |
| CC(=O)Nc1ccc(Nc2nccc(Nc3cc(C4CCCCC4)n[nH]3)n2)cc1 [APY36] | 16 | 10 | 19 | 0.000897 | – | – | – | – | – | – | – | – | – | – |
| N#CCc1ccc(Nc2nc(Nc3cc(C4CC4)n[nH]3)c3ccccc3n2)cc1 [APY65] | 29 | 22 | 51 | 0.005304 | – | – | – | – | – | significant in vivo activation | significant activation | – | – | – |
| N#CCc1ccc(Nc2nccc(Nc3cc(C4CCCC4)n[nH]3)n2)cc1 [APY67] | 21 | 20 | 66 | 0.006034 | – | −6 | 2289 | −4 | 2326 | – | significant activation | – | – | – |
| Cc1cc(Nc2cc(C3CC3)n[nH]2)nc(Nc2ccc(CC#N)cc2)n1 [APY69] | 36 | 23 | 40 | 0.06355 | – | 16 | 2805 | 18 | 2864 | significant in vivo activation | significant activation | – | – | – |
| CC(=O)Nc1ccc(Nc2nccc(Nc3cc(C4CCCC4)n[nH]3)n2)cc1 [APY75] | 44 | 9 | 17 | 0.00175 | – | – | – | – | – | – | – | – | – | – |
| OCCc1ccc(Nc2nccc(Nc3cc(C4CCCC4)n[nH]3)n2)cc1 [APY76] | 11 | 23 | 39 | 0.03994 | – | – | – | – | – | significant in vivo activation | significant activation | – | – | – |
| N#CCc1ccc(Nc2nccc(Nc3cc(C4CCC4)n[nH]3)n2)cc1 [APY77] | 37 | 21 | 37 | 0.006479 | – | 9 | 2648 | 6 | 2570 | – | significant activation | – | – | – |
| N#CCc1ccc(Nc2nc(Nc3cc(C4CCCC4)n[nH]3)c3ccccc3n2)cc1 [APY78] | 11 | 11 | 27 | 0.002028 | – | – | – | – | – | – | – | – | – | – |
| N#CCc1ccc(Nc2nc(Nc3cc(C4CCCCC4)n[nH]3)c3ccccc3n2)cc1 [APY79] | – | – | – | 0.000626 | – | – | – | – | – | – | – | – | – | – |
| Cc1cc(Nc2cc(C3CCCC3)n[nH]2)nc(Nc2ccc(CC#N)cc2)n1 [APY80] | 9 | 12 | 28 | 0.001022 | significant inhibition | – | – | – | – | – | – | – | – | – |
| N#CCc1ccc(Nc2nc(Nc3cc(C4CCC4)n[nH]3)c3ccccc3n2)cc1 [APY82] | 27 | 29 | 27 | 0.002172 | – | – | – | – | – | significant in vivo activation | – | – | – | – |
| Cc1cc(Nc2cc(C3CCC3)n[nH]2)nc(Nc2ccc(CC#N)cc2)n1 [APY83] | 29 | 21 | 55 | 0.02693 | – | – | – | – | – | significant in vivo activation | significant activation | – | – | – |
| N#CCc1ccc(Nc2nccc(Nc3cc(-c4cccs4)n[nH]3)n2)cc1 [APY84] | 12 | 21 | 60 | 0.004672 | significant inhibition | – | – | – | – | significant in vivo activation | – | – | – | – |
| Cc1ccc(-c2cc(Nc3nc(Nc4ccc(CC#N)cc4)nc4ccccc34)[nH]n2)s1 [APY85] | 13 | 15 | 14 | 0.003287 | – | – | – | – | – | – | significant activation | – | – | – |
| tunicamycin [Tm, reference compound] | – | – | – | – | – | – | – | – | – | – | – | 78 | 59 | 3869 |
